Measured values from ChEMBL document CHEMBL5370579, “Structure-based lead optimization to improve potency and selectivity of a novel tetrahydroimidazo[1,2-a]pyridine-5-carboxylic acid series of heparanase-1 inhibitor” (Bioorg Med Chem, 2023).
Each block holds one compound with its values, some of them ahead of it. Calls of active or inactive are those of the source. The rule behind the calls is not given here.

Columns and labels:
Heparanase = molecular target: T1, Heparanase (Homo sapiens, UniProt Q9Y251); experiment: Inhibition of recombinant human HPSE1 using biotinylated heparan sulfate-Eu cryptate as substrate pre-incubated for 10 mins followed by substrate addition and measured after 60 mins by fluorescence based HTRF assay
T1 sequence (Q9Y251 whole entry): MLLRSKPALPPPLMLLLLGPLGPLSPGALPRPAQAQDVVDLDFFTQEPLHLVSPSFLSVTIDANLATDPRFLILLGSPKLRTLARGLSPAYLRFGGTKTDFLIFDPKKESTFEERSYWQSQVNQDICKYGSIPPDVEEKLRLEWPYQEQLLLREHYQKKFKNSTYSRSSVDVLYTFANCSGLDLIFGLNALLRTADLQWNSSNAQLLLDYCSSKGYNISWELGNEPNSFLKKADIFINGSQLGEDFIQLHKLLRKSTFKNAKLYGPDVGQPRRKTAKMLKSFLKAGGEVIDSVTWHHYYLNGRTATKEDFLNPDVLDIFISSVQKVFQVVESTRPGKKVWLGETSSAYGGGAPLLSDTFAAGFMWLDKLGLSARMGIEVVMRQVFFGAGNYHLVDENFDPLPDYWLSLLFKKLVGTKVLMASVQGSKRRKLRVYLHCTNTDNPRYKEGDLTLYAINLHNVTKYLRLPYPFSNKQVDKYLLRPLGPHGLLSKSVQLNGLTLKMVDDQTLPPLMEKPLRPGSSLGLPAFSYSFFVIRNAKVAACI

Beta-glucuronidase = molecular target: T2, Beta-glucuronidase (Homo sapiens, UniProt P08236); experiment: Inhibition of recombinant human GUSbeta using 4-MUG as substrate pre-incubated for 10 mins followed by substrate addition and measured after 60 mins by fluorescence based assay
T2 sequence (P08236 whole entry): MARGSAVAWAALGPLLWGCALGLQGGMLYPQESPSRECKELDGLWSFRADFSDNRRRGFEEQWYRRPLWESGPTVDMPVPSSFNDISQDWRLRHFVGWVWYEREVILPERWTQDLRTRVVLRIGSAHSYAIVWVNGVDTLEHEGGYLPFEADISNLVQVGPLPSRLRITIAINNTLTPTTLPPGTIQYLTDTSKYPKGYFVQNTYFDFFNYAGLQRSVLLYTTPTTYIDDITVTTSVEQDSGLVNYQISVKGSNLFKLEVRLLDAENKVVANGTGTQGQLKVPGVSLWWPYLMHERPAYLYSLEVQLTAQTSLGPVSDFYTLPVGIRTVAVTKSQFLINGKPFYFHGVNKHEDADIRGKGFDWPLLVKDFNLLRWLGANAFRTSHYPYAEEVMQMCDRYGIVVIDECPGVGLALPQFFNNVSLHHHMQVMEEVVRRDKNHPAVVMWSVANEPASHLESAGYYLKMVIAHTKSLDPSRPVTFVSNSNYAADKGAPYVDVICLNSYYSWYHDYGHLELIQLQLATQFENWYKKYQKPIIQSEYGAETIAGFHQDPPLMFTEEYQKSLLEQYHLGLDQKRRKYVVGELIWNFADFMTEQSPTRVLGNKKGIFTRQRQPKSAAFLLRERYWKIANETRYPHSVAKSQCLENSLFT

[1] = Inhibition of recombinant human GBA using 4-MUBDG as substrate pre-incubated for 10 mins followed by substrate addition and measured after 24 hrs by fluorescence based assay
[2] = Protein binding in C57BL/6J mouse serum at 1 ug/ml measured after 4 hrs by LC-MS/MS analysis; assay type: ADME, cell-free; conditions: at 1 µg/mL, read-out: PB (converted)
[3] = Total clearance in C57BL/6J mouse at 0.5 mg/kg, iv measured after 0.083 to 24 hrs by LC-MS/MS analysis; assay type: ADME, organism-based; conditions: in vivo, time 0.083-24 hrs
[4] = Volume of distribution at steady state in C57BL/6J mouse at 0.5 mg/kg, iv measured after 0.083 to 24 hrs by LC-MS/MS analysis; assay type: ADME, organism-based; conditions: in vivo, time 0.083-24 hrs, read-out: Vdss
[5] = Half life in C57BL/6J mouse at 0.5 mg/kg, iv measured after 0.083 to 24 hrs by LC-MS/MS analysis; assay type: ADME, organism-based; conditions: in vivo, time 0.083-24 hrs
[6] = Drug excretion in C57BL/6J mouse urine at 0.5 mg/kg, iv measured after 24 hrs by LC-MS/MS analysis; assay type: ADME, organism-based; conditions: read-out: Drug excretion
Mus musculus = experiment: In vivo inhibition of HPSE1 in C57BL/6J mouse at 3 to 100 mg/kg, sc measured after 1 to 4 hrs; assay type: functional, organism-based; conditions: dose 3-100 mg/kg, time 1-4 hrs
[7] = Drug concentration in C57BL/6J mouse plasma at 3 mg/kg, sc measured after 1 hrs by LC-MS/MS analysis; assay type: ADME, organism-based
[8] = Drug concentration in C57BL/6J mouse plasma at 30 mg/kg, sc measured after 1 hrs by LC-MS/MS analysis; assay type: ADME, organism-based
[9] = Drug concentration in C57BL/6J mouse plasma at 100 mg/kg, sc measured after 1 hrs by LC-MS/MS analysis; assay type: ADME, organism-based
[10] = Drug concentration in C57BL/6J mouse plasma at 3 mg/kg, sc measured after 4 hrs by LC-MS/MS analysis; assay type: ADME, organism-based
[11] = Drug concentration in C57BL/6J mouse plasma at 30 mg/kg, sc measured after 4 hrs by LC-MS/MS analysis; assay type: ADME, organism-based
[12] = Drug concentration in C57BL/6J mouse plasma at 100 mg/kg, sc measured after 4 hrs by LC-MS/MS analysis; assay type: ADME, organism-based
[13] = Inhibition of bovine liver beta-glucuronidase; assay type: tissue-based, Bos taurus

SMILES: Cc1ccc(S(=O)(=O)Nc2ccc(CCc3cn4c(n3)[C@H](O)[C@@H](O)[C@H](O)[C@H]4C(=O)O)cc2)cc1
IC50 (Heparanase): 1340 nM

SMILES: CO[C@H]1[C@H](O)[C@@H](O)c2nc(CCc3cccc(Oc4ccccc4)c3)cn2[C@@H]1C(=O)O
IC50 (Heparanase): 442 nM | IC50 (Beta-glucuronidase): 839 nM | IC50 [1]: 439 nM | fraction unbound at 4 h, 1 ug/ml [2]: 0.045 | clearance [3]: 5.83 mL/min/kg | Vd [4]: 0.666 L/kg | half-life [5]: 2.1 h | dose excreted at 24 h [6]: 31.1% | inhibition (Mus musculus): Active | concentration at 1 h [7]: 1240 ng/mL | concentration at 1 h [8]: 9820 ng/mL | concentration at 1 h [9]: 24200 ng/mL | concentration at 4 h [10]: 191 ng/mL | concentration at 4 h [11]: 1070 ng/mL | concentration at 4 h [12]: 1880 ng/mL

SMILES: O=C(O)[C@@H]1[C@@H](O)[C@H](O)[C@@H](O)c2nc(CCc3cccc(Oc4ccccc4)c3)cn21
IC50 (Heparanase): 467 nM | IC50 (Beta-glucuronidase): 8 nM | IC50 [1]: 53 nM | fraction unbound at 4 h, 1 ug/ml [2]: 0.036 | clearance [3]: 8.18 mL/min/kg | Vd [4]: 0.439 L/kg | half-life [5]: 1.6 h | dose excreted at 24 h [6]: 44.2%

SMILES: O=C(O)[C@@H]1[C@@H](O)[C@H](O)[C@@H](O)c2nc(CCc3ccc(CCc4ccccc4)cc3)cn21
IC50 (Heparanase): 2000 nM

SMILES: CC(C)c1ccc(Oc2cccc(CCc3cn4c(n3)[C@H](O)[C@@H](O)[C@H](O)[C@H]4C(=O)O)c2)cc1
IC50 (Heparanase): 1380 nM

SMILES: O=C(O)[C@@H]1[C@@H](O)[C@H](O)[C@@H](O)c2nc(CCc3ccc(Oc4ccccc4)cc3)cn21
IC50 (Heparanase): 586 nM

Now from value to compound:

IC50 (Heparanase): 1750 nM
SMILES: O=C(O)[C@@H]1[C@@H](O)[C@H](O)[C@@H](O)c2nc(C3CCN(C(=O)c4ccccc4Oc4ccccc4)CC3)cn21

IC50 (Heparanase): 1100 nM
SMILES: O=C(O)[C@@H]1[C@@H](O)[C@H](O)[C@@H](O)c2nc(-c3ccc(Oc4ccccc4)cc3)cn21

IC50 (Heparanase): 9950 nM
SMILES: COc1cccc(OC)c1Oc1cccc(CCc2cn3c(n2)[C@H](O)[C@@H](O)[C@H](O)[C@H]3C(=O)O)c1OC

IC50 (Heparanase): 1600 nM
SMILES: COc1c(CCc2cn3c(n2)[C@H](O)[C@@H](O)[C@H](O)[C@H]3C(=O)O)cccc1Oc1ccccc1

IC50 (Heparanase): 748 nM
SMILES: O=C(O)[C@@H]1[C@@H](O)[C@H](O)[C@@H](O)c2nc(CCc3ccc(S(=O)(=O)c4ccccc4)cc3)cn21

Ki [13]: 12 nM
SMILES: O=C(O)[C@@H]1[C@@H](O)[C@H](O)[C@@H](O)c2nccn21
